The text below walks through data of US5519034A, “Tetraisoquinoline compounds which have useful pharmaceutical utility” (The Boots Company PLC, priority 1991, dated 1996).

Molecules are shown by their SMILES. pKi: −log10 of the molar value. Where two headings read alike, the source gives them in different places.

The target in one assay is T1, D1 dopamine receptors (Rattus norvegicus, UniProt P18901).
T1 construct: Striatal samples from the brains of male Charles River CD rats; from tissue; host or cells: striatum of male Charles River CD rats (washed membrane pellet)
T1 sequence (P18901 whole entry): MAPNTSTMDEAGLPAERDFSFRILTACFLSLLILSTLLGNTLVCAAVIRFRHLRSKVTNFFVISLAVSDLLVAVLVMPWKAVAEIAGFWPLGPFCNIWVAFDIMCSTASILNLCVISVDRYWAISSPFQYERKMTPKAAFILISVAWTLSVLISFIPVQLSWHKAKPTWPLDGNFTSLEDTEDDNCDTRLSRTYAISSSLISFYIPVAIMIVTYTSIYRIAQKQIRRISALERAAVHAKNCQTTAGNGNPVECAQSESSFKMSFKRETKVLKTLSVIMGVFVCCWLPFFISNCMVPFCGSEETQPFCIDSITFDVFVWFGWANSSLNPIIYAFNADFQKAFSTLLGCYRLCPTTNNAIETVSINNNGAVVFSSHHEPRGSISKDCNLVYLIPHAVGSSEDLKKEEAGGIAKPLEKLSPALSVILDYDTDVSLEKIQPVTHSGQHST
Put plainly: D1 dopamine receptor binding: inhibition of tritiated SCH 23390 binding, rat striatal samples. Further details: species or system rat (male Charles River CD rats). As to conditions: rat striatum, tritiated SCH 23390, pH 7.4, 37° C., 30 minutes. On the procedure:
(§1) Striatal samples from the brains of male Charles River CD rats weighing between 140-250 g were homogenised in ice-cold 50 mM Tris-HCl buffer (pH 7.4 when measured at 25° C. for D1 binding assays and pH 7.7 when measured at 25° C. for D2 binding assays) and centrifuged for 10 minutes (at 21,000 g when used for D1binding assay and 40,000 g when used for D2binding assays). The pellet was resuspended in the same buffer, again centrifuged and the final pellet stored at -80° C. Before each test the pellet was resuspended in 50 mM Tris-HCl buffer containing 120 mM NaCl, 5 mM KCl, 2 mM CaCl2 and 1 mM MgCl2 at pH 7.4 for the D1 binding assays and at pH 7.7 with the addition of 6 mM ascorbic acid for the D2 binding assays. Aliquots of this suspension were then added to tubes containing the ligand and either the compound under test or buffer. For the D1 binding assays the ligand was tritiated SCH 23390 and the mixture was incubated at 37° C. for 30 minutes before the incubation was terminated by rapid filtration. For the D2 binding assays the ligand was tritiated (S)-sulpiride and the mixture was incubated at 4° C. for 40 minutes before the incubation was terminated by rapid filtration. Non-specific binding was determined experimentally by the addition of saturating concentrations of chloropromazine or spiroperidol for D1 and D2 receptors respectively.
(§2) The filters were washed with ice-cold Tris-HCl buffer and dried. The filters were punched out on to vials containing scintillation fluid and were left for about 20 hours before being counted by scintillation spectrophotometry. Displacement curves were produced over a range of concentrations of the compound under test and the concentration which gave a 50% inhibition of specific binding (IC50) obtained from the curve. The inhibition coefficient Ki was then calculated using the formula [formula] in which [ligand] is the concentration of the tritiated ligand used and KD is the equilibrium dissociation constant for the ligand.
(§3) In some cases Ki values for D2 binding were estimated from single concentration data by the application of the Langmuir adsorption isotherm equation. These cases are indicated by an "E" in the last two columns of Table I. In other cases it was not possible to determine or estimate the Ki and the Ki value is given as greater than (>) that which would result from the application of the above formula to the highest concentration which displaced ≤50% of the ligand.

The next assay deals with T2, D2 dopamine receptors (Rattus norvegicus, UniProt P61169).
T2 construct: Striatal samples from the brains of male Charles River CD rats; from tissue; host or cells: striatum of male Charles River CD rats (washed membrane pellet)
T2 sequence (P61169 whole entry): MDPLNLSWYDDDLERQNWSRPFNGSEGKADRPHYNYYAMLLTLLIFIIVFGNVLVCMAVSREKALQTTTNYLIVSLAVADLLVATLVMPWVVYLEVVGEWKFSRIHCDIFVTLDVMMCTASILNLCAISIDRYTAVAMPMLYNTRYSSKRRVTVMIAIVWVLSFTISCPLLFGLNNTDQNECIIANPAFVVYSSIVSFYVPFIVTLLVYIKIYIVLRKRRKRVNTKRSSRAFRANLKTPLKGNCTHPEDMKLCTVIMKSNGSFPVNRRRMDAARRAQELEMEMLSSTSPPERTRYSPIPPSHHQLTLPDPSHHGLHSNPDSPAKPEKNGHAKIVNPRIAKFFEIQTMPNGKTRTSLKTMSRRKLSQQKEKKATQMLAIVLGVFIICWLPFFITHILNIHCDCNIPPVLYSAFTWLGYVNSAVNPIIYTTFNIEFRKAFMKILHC
Kind of assay: D2 dopamine receptor binding: inhibition of tritiated (S)-sulpiride binding, rat striatal samples. Set-up: species or system rat (male Charles River CD rats). As to conditions: for pKi: rat striatum, tritiated (S)-sulpiride; for Ki for D2 / Ki for D1: ratio to two significant figures. As to the method: as §1, §2, §3

Setting [1] is: pH 7.7, 4° C., 40 minutes, > = from highest concentration which displaced ≤50% of the ligand, read-out: Ki for D2 binding.
Setting [2] is: estimated from single concentration data by Langmuir adsorption isotherm equation, read-out: Ki for D2 binding (marked E).

As usually defined, the pKi is the Ki on a negative log10 scale, so that one unit is a factor of ten.

Consider `CN1CCc2cc(O)c(O)cc2C1C1(c2ccc(Cl)cc2)CCC1` (stereo not drawn) [Example 50, 1-[1-(4-chlorophenyl)cyclobutyl]-6,7-dihydroxy-2-methyl-1,2,3,4-tetrahydroisoquinoline], for which the negative-log Ki (pKi) on D1 dopamine receptors was 7.60; at D2 dopamine receptors (setting [1]), 5.82. For the same compound, the “Ki for D2 / Ki for D1” value on D2 dopamine receptors was 60.

`CN1CCc2ccc(O)cc2C1C1(c2ccc(Cl)cc2)CCC1` (stereo not drawn) [Example 51, 1-[1-(4-chlorophenyl)cyclobutyl]-7-hydroxy-2-methyl-1,2,3,4-tetrahydroisoquinoline]: the results for the pKi on D1 dopamine receptors and on D2 dopamine receptors (setting [1]) were 7.89 and below 6.30, respectively. For the same compound, the “Ki for D2 / Ki for D1” value on D2 dopamine receptors is on record as above 38.

Turning to `COc1cc2c(cc1O)C(C1(c3cccc4ccccc34)CC1)N(C)CC2` (stereo not drawn) [Example 43, 7-hydroxy-6-methoxy-2-methyl-1-[1-(1-naphthyl)cyclopropyl]-1,2,3,4-tetrahydroisoquinoline], the pKi at D1 dopamine receptors is 8.85; at D2 dopamine receptors (setting [1]), 6.07. Moreover, the “Ki for D2 / Ki for D1” value on D2 dopamine receptors is on record as 610.

For the compound `CN1CCc2cc(Cl)c(O)cc2C1C1(c2ccccc2)CCC1` (stereo not drawn) [Example 28, 6-chloro-7-hydroxy-2-methyl-1-(1-phenylcyclobutyl)-1,2,3,4-tetrahydroisoquinoline], the pKi at D1 dopamine receptors was 7.96; at D2 dopamine receptors (setting [1]), 5.44. In addition, at D2 dopamine receptors, the “Ki for D2 / Ki for D1” value was 330.

Turning to `CN1CCc2cc(O)c(O)cc2C1C1(c2ccc(Cl)cc2)CC1` (stereo not drawn) [Example 13, 1-[1-(4-chlorophenyl)cyclopropyl]-6,7-dihydroxy-2-methyl-1,2,3,4-tetrahydroisoquinoline], the figures for the pKi on D1 dopamine receptors and on D2 dopamine receptors (setting [1]) were 7.36 and 5.43, respectively. For the same compound, the “Ki for D2 / Ki for D1” value at D2 dopamine receptors turned out to be 84.

Consider `CN1CCc2cc(F)c(O)cc2C1C1(c2ccccc2Cl)CC1` (stereo not drawn) [Example 63, 1-[1-(2-chlorophenyl)cyclopropyl]-6-fluoro-7-hydroxy-2-methyl-1,2,3,4-tetrahydroisoquinoline], for which the figures for the pKi on D1 dopamine receptors and at D2 dopamine receptors (setting [1]) were 8.70 and 5.80, respectively. The “Ki for D2 / Ki for D1” value on D2 dopamine receptors is recorded as 800.

Consider `CN1CCc2cc(O)c(Cl)cc2C1C1(c2ccccc2)CCC1` (stereo not drawn) [Example 31, 7-chloro-6-hydroxy-2-methyl-1-(1-phenylcyclobutyl)-1,2,3,4-tetrahydroisoquinoline], for which the pKi at D1 dopamine receptors was 6.27; on D2 dopamine receptors (setting [2]), 4.96.

In the case of `COc1cc2c(cc1O)C(C1(c3ccc(Cl)cc3Cl)CCC1)N(C)CC2` (stereo not drawn) [Example 37, 1-[1-(2,4-dichlorophenyl)cyclobutyl]-7-hydroxy-6-methoxy-2-methyl-1,2,3,4-tetrahydroisoquinoline], the pKi is 9.22 at D1 dopamine receptors and 5.28 at D2 dopamine receptors (setting [1]). Besides, on D2 dopamine receptors, the “Ki for D2 / Ki for D1” value is listed as 8800.

Take `CN1CCc2ccc(O)cc2C1C1(c2ccccc2)CCC1` (stereo not drawn) [Example 41, 7-hydroxy-2-methyl-1-(1-phenylcyclobutyl)-1,2,3,4-tetrahydroisoquinoline]: the pKi was 7.10 on D1 dopamine receptors and 4.89 on D2 dopamine receptors (setting [1]). Besides, the “Ki for D2 / Ki for D1” value on D2 dopamine receptors is 160.

In the case of `COc1cc2c(cc1O)C(C1(c3ccccc3Cl)CCCC1)N(C)CC2` (stereo not drawn) [Example 84, 1-[1-(2-chlorophenyl)cyclopentyl]-7-hydroxy-6-methoxy-2-methyl-1,2,3,4-tetrahydroisoquinoline], the pKi on D1 dopamine receptors is 7.92; on D2 dopamine receptors (setting [1]), 5.29. The “Ki for D2 / Ki for D1” value at D2 dopamine receptors is 430.

As to `CN1CCc2cc(F)c(O)cc2C1C1(c2ccccc2Cl)CC1` (single isomer, unassigned; (+)) [Example 62, (+)-1-[1-(2-chlorophenyl)cyclopropyl]-6-fluoro-7-hydroxy-2-methyl-1,2,3,4-tetrahydroisoquinoline], the pKi is 9.42 on D1 dopamine receptors and 6.39 on D2 dopamine receptors (setting [1]). Further, the “Ki for D2 / Ki for D1” value on D2 dopamine receptors was 1100.

`COc1cc2c(cc1O)C(C1(c3ccccc3Cl)CC1)N(C)CC2` (single isomer, unassigned; (+)) [Example 85, (+)-1-[1-(2-chlorophenyl)cyclopropyl]-7-hydroxy-6-methoxy-2-methyl-1,2,3,4-tetrahydroisoquinoline]: the negative logarithm of the Ki (pKi) is 9.55 on D1 dopamine receptors and 6.05 on D2 dopamine receptors (setting [1]). Moreover, at D2 dopamine receptors, the “Ki for D2 / Ki for D1” value was found to be 3200.

For the compound `CN1CCc2cc(O)c(O)cc2C1C1(c2ccc(O)cc2)CCCC1` (stereo not drawn) [Example 19, 6,7-dihydroxy-1-[1-(4-hydroxyphenyl)cyclopentyl]-2-methyl-1,2,3,4-tetrahydroisoquinoline], the values for the pKi at D1 dopamine receptors and on D2 dopamine receptors (setting [2]) were 6.72 and 5.15, respectively.

As for `CN1CCc2cc(O)c(O)cc2C1C1(c2ccccc2C(F)(F)F)CCC1` (stereo not drawn) [Example 23, 6,7-dihydroxy-2-methyl-1-[1-(2-trifluoromethylphenyl)cyclobutyl]-1,2,3,4-tetrahydroisoquinoline], the pKi at D1 dopamine receptors was 7.74; at D2 dopamine receptors (setting [1]), 4.82. At D2 dopamine receptors, the “Ki for D2 / Ki for D1” value is recorded as 830.

Regarding `COc1cc2c(cc1O)C(C1(c3ccccc3Cl)CC(C)(C)C1)N(C)CC2` (stereo not drawn) [Example 70, 7-hydroxy-6-methoxy-2-methyl-1-[1-(2-chlorophenyl)-3,3-dimethylcyclobutyl]-1,2,3,4-tetrahydroisoquinoline], the pKi at D1 dopamine receptors is 7.68; on D2 dopamine receptors (setting [1]), 4.46. Further, the “Ki for D2 / Ki for D1” value on D2 dopamine receptors is 1700.

In the case of `CN1CCc2cc(O)c(O)cc2C1C1(c2ccccc2Br)CCC1` (single isomer, unassigned; (+)) [Example 60, (+)-1-[1-(2-bromo-phenyl)cyclobutyl] -6,7-dihydroxy-2-methyl-1,2,3,4-tetrahydroisoquinoline], the pKi is 8.55 on D1 dopamine receptors and 5.70 at D2 dopamine receptors (setting [1]). On D2 dopamine receptors, the “Ki for D2 / Ki for D1” value came to 710.

Take `CN1CCc2cc(O)c(O)cc2C1C1(c2ccccc2F)CCC1` (stereo not drawn) [Example 7, 1-[1-(2-fluorophenyl)cyclobutyl]-6,7-dihydroxy-2-methyl-1,2,3,4-tetrahydroisoquinoline]: the pKi on D1 dopamine receptors was 7.68; on D2 dopamine receptors (setting [1]), 5.54. Besides, at D2 dopamine receptors, the “Ki for D2 / Ki for D1” value is listed as 140.

For the compound `CN1CCc2cc(O)c(O)cc2C1C1(c2ccc(Cl)c(Cl)c2)CCC1` (stereo not drawn) [Example 18, 1-[1-(3,4-dichlorophenyl)cyclobutyl]-6,7-dihydroxy-2-methyl-1,2,3,4-tetrahydroisoquinoline], the negative-log Ki (pKi) on D1 dopamine receptors was 7.08; on D2 dopamine receptors (setting [1]), 5.36. The “Ki for D2 / Ki for D1” value on D2 dopamine receptors turned out to be 53.

With `CN1CCc2cc(O)c(O)cc2C1C1(c2cccc(Cl)c2)CCC1` (stereo not drawn) [Example 33, 1-[1-(3-chlorophenyl)cyclobutyl]-6,7-dihydroxy-2-methyl-1,2,3,4-tetrahydroisoquinoline], the pKi was 7.19 on D1 dopamine receptors and 4.64 on D2 dopamine receptors (setting [1]). Further, the “Ki for D2 / Ki for D1” value at D2 dopamine receptors was 350.

Turning to `CN1CCc2cc(Cl)c(O)c(Cl)c2C1C1(c2ccccc2)CCC1` (stereo not drawn) [Example 58, 6,8-dichloro-7-hydroxy-2-methyl-1-(1-phenylcyclobutyl)-1,2,3,4-tetrahydroisoquinoline], the pKi at D1 dopamine receptors is 6.13; on D2 dopamine receptors (setting [1]), 3.44. In addition, the “Ki for D2 / Ki for D1” value at D2 dopamine receptors stood at 490.

With `CN1CCc2cc(O)c(O)cc2C1C1(c2ccccc2)CCCC1` (stereo not drawn) [Example 15, 6,7-dihydroxy-2-methyl-1-(1-phenylcyclopentyl)-1,2,3,4-tetrahydroisoquinoline], the results for the pKi on D1 dopamine receptors and on D2 dopamine receptors (setting [1]) were 6.70 and below 5.30, respectively. At D2 dopamine receptors, the “Ki for D2 / Ki for D1” value was above 25.

In the case of `CN1CCc2cc(O)c(O)cc2C1C1(c2ccccc2C#N)CCC1` (stereo not drawn) [Example 83, 1-[1-(2-cyanophenyl)cyclobutyl]-6,7-dihydroxy-2-methyl-1,2,3,4-tetrahydroisoquinoline], the negative-log Ki (pKi) on D1 dopamine receptors is 7.68; on D2 dopamine receptors (setting [2]), 5.18.

Consider `COc1cc2c(cc1O)C(C1(c3ccc(Cl)cc3)CCC1)N(C)CC2` (stereo not drawn) [Example 49, 1-[1-(4-chlorophenyl)cyclobutyl]-7-hydroxy-6-methoxy-2-methyl-1,2,3,4-tetrahydroisoquinoline], for which the figures for the pKi at D1 dopamine receptors and on D2 dopamine receptors (setting [1]) were 8.08 and below 6.30, respectively. Moreover, at D2 dopamine receptors, the “Ki for D2 / Ki for D1” value is reported as above 60.

Take `CN1CCc2cc(O)c(O)cc2C1C1(c2ccc(-c3ccccc3)cc2)CCC1` (stereo not drawn) [Example 78, 6,7-dihydroxy-2-methyl-1-[1-(4-biphenylyl)cyclobutyl]-1,2,3,4-tetrahydroisoquinoline]: the figures for the pKi at D1 dopamine receptors and at D2 dopamine receptors (setting [1]) were 7.03 and 6.26, respectively. The “Ki for D2 / Ki for D1” value at D2 dopamine receptors stood at 5.9.
